Several values for one entry are separate records, joined by “and”; a condition that tells them apart may be missing. Equal entries are not always repeated.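 Where inhibition never reached the appropriate level, the endpoint shown equals the highest concentration tested. Otherwise, values were interpolated linearly from a five-concentration, 48-hour dose response in 96-well plates. GI50 = concentration required for 50% inhibition of growth. TGI denotes the concentration required for complete inhibition of growth.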 Where a SMILES comes first, the peptide text is derived from it. [ ]: non-standard residue; d: D form. The star is where a group is joined. ξ: configuration not given here. X3 = COc1ccc(C(N*)c2ccc(OC)cc2)cc1; NMeF = CN[C@@H](Cc1ccccc1)C(=O)O; NMeD = CN[C@@H](CC(=O)O)C(=O)O; NMeV = CN[C@H](C(=O)O)C(C)C; ξNMeV = CNC(C(=O)O)C(C)C; Boc = CC(C)(C)OC(=O)*; ξNMeA = CNC(C)C(=O)O; ξV = CC(C)C(N)C(=O)O
How the values were obtained:
Test in all cases: growth of human tumour cells (NCI), 48 h
SK-MEL-5 melanoma = system: SK-MEL-5 melanoma
LOX IMVI melanoma = system: LOX IMVI melanoma
LXFL 529 NSCLC = system: LXFL 529 NSCLC
KM20L2 colon = system: KM20L2 colon
PC-3 prostate = system: PC-3 prostate
HCC-2998 colon = system: HCC-2998 colon
CAKI-1 renal = system: CAKI-1 renal
HS 578T breast = system: HS 578T breast
T-47D breast = system: T-47D breast
HL-60(TB) leukemia = system: HL-60(TB) leukemia

Row | Structure (SMILES) | TGI (SK-MEL-5 melanoma) | TGI (LOX IMVI melanoma) | TGI (LXFL 529 NSCLC) | TGI (KM20L2 colon) | TGI (PC-3 prostate) | TGI (HCC-2998 colon) | TGI (CAKI-1 renal) | TGI (HS 578T breast) | TGI (T-47D breast) | TGI (HL-60(TB) leukemia) | GI50 (SK-MEL-5 melanoma) | GI50 (LOX IMVI melanoma) | GI50 (HCC-2998 colon) | GI50 (CAKI-1 renal) | GI50 (HL-60(TB) leukemia)
1 | CN(C)CC1CC/C(=C\c2ccc(O)cc2)C1=O (configuration not stated) | 20.4 µM | 5.51 µM | 3.45 µM | 22.1 µM | 20.2 µM | 25.5 µM | 3.24 µM | 40.9 µM | 5.34 µM | 2.91 µM | – | – | – | – | –
2 | COc1ccc(C(NC(=O)C[C@@H](C(=O)N(C)C(C)C(=O)O)N(C)C(=O)[C@@H]2CCCN2C(=O)[C@H](C(C)C)N(C)C(=O)C(C(C)C)N(C)C(=O)[C@H](Cc2ccccc2)N(C)C(=O)C(NC(=O)OC(C)(C)C)C(C)C)c2ccc(OC)cc2)cc1 (some centres not stated) (Boc-[ξV][NMeF][ξNMeV][NMeV]P[NMeD](X3)[ξNMeA]-OH) | 12.7 µM and 28.5 µM | 15.7 µM and 31.2 µM | 27.9 µM | 37.6 µM | 37.5 µM | 14.8 µM and 36 µM | 37.5 µM | 7.32 µM | 36.7 µM | 18.7 µM and 45.2 µM | 15.2 µM | 17.2 µM | 19.3 µM | 22.9 µM | 24 µM
3 | C/C(CCn1[nH]c(=O)ccc1=O)=N\NC(=O)C(=O)NN | > 100 µM | > 100 µM | > 100 µM | > 100 µM | – | > 100 µM | > 100 µM | – | – | > 100 µM | – | – | – | – | –

From PubChem BioAssay (NCI)
